From article PMC11990924, “Inhibition of Tyrosinase and Melanogenesis by Carboxylic Acids: Mechanistic Insights and Safety Evaluation” (Molecules, 2025)

Tested on: B16-F10 cells
Assay: Proteomic analysis of B16-F10 cells (DIA mass spectrometry)
Type: cell-based, mouse
Conditions: 6 mM vs control; Table S4
Protocol: B16-F10 cells were treated with various concentrations of carboxylic acids following the same culture protocol used for melanin inhibition assays. After treatment, the cells were collected and submitted to Shanghai Zhongke Xinming Biotechnology Co., Ltd. (Shanghai, China) for proteomics analysis. The collected cells were lysed with an appropriate volume of SDT lysis buffer (4% SDS, 100 mM Tris-HCl, pH 7.6) to extract proteins. DTT was added to reduce disulfide bonds, followed by incubation at room temperature for 1 h. Subsequently, iodoacetamide was added, and the mixture was reacted in the dark at room temperature for 30 min. The proteins were then digested with trypsin overnight. The resulting peptide fragments were desalted using a C18 cartridge. After freeze-drying, the peptides were resuspended in 40 μL of 0.1% formic acid solution, and the peptide concentration was determined by measuring the absorbance at 280 nm. An appropriate amount of internal reference for targeted proteomics (iRT) standard peptides was added to each sample for data-independent acquisition (DIA) mass spectrometry analysis. Chromatographic separation was performed using a nanoflow Evosep One system. The separated samples were analyzed by DIA mass spectrometry using a timsTOF Pro mass spectrometer (Bruker Daltonics, Bremen, Germany). Detection was conducted in positive-ion mode, with MS and MS/MS scanning ranges set from 100 to 1700 m/z. MS2 data acquisition was performed in DIA mode, with four TIMS scan windows, each accumulating for 100 ms. In PASEF mode, the collision energy varied linearly with ion mobility (1/K0), ranging from 20 to 59 eV for ions with 1/K0 values between 0.85 and 1.30 Vs/cm^2. The DIA data were processed using Spectronaut 19 software with the following parameter settings: retention time prediction type set to dynamic iRT, interference correction on MS2 level enabled, cross-run normalization enabled, maximum missed cleavage sites set to 2, fixed modification set to Carbamidomethyl (C), and variable modifications set to Oxidation (M) and Acetyl (Protein N-term). All results were filtered with a Q-value cutoff of 0.01, corresponding to a false discovery rate (FDR) of less than 1%. The target protein set was annotated using Blast2GO (version BLASTP 2.8.0+). The process included four steps: sequence alignment (Blast), GO mapping, GO annotation, and additional annotation augmentation using InterProScan. Using the KOBAS 3.0 software, KEGG pathway annotation was performed on the target protein set. Fisher’s exact test was employed to compare the distribution of GO categories in the target protein set and the overall protein set, thereby conducting enrichment analysis of the GO annotations in the target protein set. The proteomics dataset generated in this study has been made publicly available through the PRIDE ProteomeXchange Consortium with the dataset identifier PXD061919.

## O=C(O)CC(O)C(=O)O (stereo not shown) [malic acid]
  Abhd14a protein fold change: 0.4947
  Acvr1b protein fold change: 0.348
  Adgrg1 protein fold change: 0.3255
  Aplp2 protein fold change: 0.1925
  App protein fold change: 0.309
  Arrdc3 protein fold change: 0.2723
  Atp6ap2 protein fold change: 0.4615
  Atxn2l protein fold change: 0.3743
  Bace2 protein fold change: 0.2949
  CUB domain-containing protein (Q3TD85) fold change: 0.319
  Cd151 protein fold change: 0.3796
  Cox6a1 protein fold change: 2.331
  Cpe protein fold change: 0.425
  Cryab protein fold change: 0.4352
  Ctns protein fold change: 0.4962
  Cxne protein fold change: 0.4043
  Cyp51a1 protein fold change: 0.4596
  Dct protein fold change: 0.453
  Ddr1 protein fold change: 0.4956
  Dgcr2 protein fold change: 0.4757
  Dhrsx protein fold change: 0.4224
  E2f5 protein fold change: 2.052
  Eng protein fold change: 0.4971
  Fam174b protein fold change: 0.4334
  Fau protein fold change: 4.207
  Fip1l1 protein fold change: 0.4619
  Fth1 protein fold change: 2.2552
  Ftl1 protein fold change: 2.521
  Ginm1 protein fold change: 0.2408
  Globin family profile domain-containing protein (Q8BPF4) fold change: 0.4868
  Gpnmb protein fold change: 0.4267
  H1-0 protein fold change: 2.091
  H1-1 protein fold change: 2.387
  Haghl protein fold change: 2.0913
  Hbbt1 protein fold change: 0.3537
  Hist2h2aa1 protein fold change: 5.559
  Hspb1 protein fold change: 0.432
  Ifitm2 protein fold change: 0.2473
  Ifitm3 protein fold change: 0.405
  Ifngr1 protein fold change: 0.477
  Il10rb protein fold change: 0.279
  Il17ra protein fold change: 0.4348
  Itih3 protein fold change: 0.2609
  Itm2b protein fold change: 0.1357
  Itm2c protein fold change: 0.2222
  Lama2 protein fold change: 2.748
  Laptm4b protein fold change: 0.1099
  Ldlr protein fold change: 0.3286
  Lgmn protein fold change: 0.3573
  Lmbrd1 protein fold change: 0.4382
  Map1lc3b protein fold change: 0.4627
  Mapre2 protein fold change: 0.4775
  Mfap3 protein fold change: 0.2203
  Mfge8 protein fold change: 0.4888
  Mlana protein fold change: 0.1802
  Ndfip1 protein fold change: 0.1482
  Nrp1 protein fold change: 0.4816
  Nrp2 protein fold change: 0.3963
  Nus1 protein fold change: 0.4939
  Pbx1 protein fold change: 2.038
  Pcdhgb2 protein fold change: 0.2826
  Peli1 protein fold change: 0.4419
  Plekhb2 protein fold change: 0.4812
  Pmel protein fold change: 0.458
  Ppp1r12b protein fold change: 2.498
  Psap protein fold change: 0.4952
  Ptprs protein fold change: 0.4661
  Pwwp3a protein fold change: 2.511
  Rhob protein fold change: 0.4341
  Rhoj protein fold change: 0.4834
  Rnf130 protein fold change: 0.4325
  Sdcbp protein fold change: 0.4716
  Sema4b protein fold change: 0.4477
  Sema6d protein fold change: 0.4605
  Sgce protein fold change: 0.2346
  Sh3bp2 protein fold change: 0.3699
  Slc4a2 protein fold change: 0.4141
  Slc24a5 protein fold change: 0.4133
  Slc38a2 protein fold change: 0.2034
  Slc45a2 protein fold change: 0.4213
  Sppl2b protein fold change: 0.4857
  Spring1 protein fold change: 0.2636
  Syt4 protein fold change: 0.1657
  Tax1bp1 protein fold change: 0.4715
  Tcf7l1 protein fold change: 0.4286
  Tgfbr1 protein fold change: 0.4711
  Tk1 protein fold change: 2.015
  Tmem59 protein fold change: 0.1062
  Tmem176a protein fold change: 0.2285
  Tnfrsf1a protein fold change: 0.4638
  Tpp1 protein fold change: 0.3033
  Tspan3 protein fold change: 0.3098
  Tspan6 protein fold change: 0.466
  Tspan10 protein fold change: 0.2722
  Tspan14 protein fold change: 0.4171
  Tyr protein fold change: 0.3761
  Tyrp1 protein fold change: 0.2755
  Ubl3 protein fold change: 0.2044
  Wfdc3 protein fold change: 0.3403
  il6st protein fold change: 0.3637
